# Experimental data taken from US20240158446A1, “CYCLIC COMPOUND HAVING SELECTIVE INHIBITORY ACTION ON KRAS OVER HRAS AND NRAS” (CHUGAI SEIYAKU KABUSHIKI KAISHA, priority 2021, published 2024).
# Where two headings read alike, the source gives them in different places. *1 amine or outer side, *2 acyl side, *3 side chain or, on linkers, in order; H or OH if unused. Where a SMILES comes first, the peptide text is derived from it. Bridges are numbered along the chain shown (N, C = ends). [ ]: non-standard residue; d: D form. The star is where a group is joined. hPhe(3-Cl-4-CF3) = N[C@@H](CCc1ccc(C(F)(F)F)c(Cl)c1)C(=O)O; X32 = COCCN([C@@H](Cc1ccc(C(F)(F)F)cc1)C(=O)[*:2])[*:1]; NPrPhe(4-CF3) = CCCN[C@@H](Cc1ccc(C(F)(F)F)cc1)C(=O)O; NEtPhe(4-Me) = CCN[C@@H](Cc1ccc(C)cc1)C(=O)O; NMeGly(cPent) = CN[C@H](C(=O)O)C1CCCC1; Pro(4,4-F2) = O=C(O)[C@@H]1CC(F)(F)CN1; Hyp = O=C(O)[C@@H]1C[C@@H](O)CN1; NMeD = CN[C@@H](CC(=O)O)C(=O)O; NMeL = CN[C@@H](CC(C)C)C(=O)O; Morpholide = C1CN(*)CCO1; Ac5c = NC1(C(=O)O)CCCC1; Aze = O=C(O)[C@@H]1CCN1; Ac4c = NC1(C(=O)O)CCC1; NPrGly = CCCNCC(=O)O; NEtG = CCNCC(=O)O; Sar = CNCC(=O)O
# Key:
# [1] = target: GDP-bound HRAS wild-type protein (Homo sapiens, UniProt P01112); assay: Binding to HRAS by surface plasmon resonance (SPR), Single Cycle Kinetics; conditions: SPR, GDP-bound HRAS wild-type protein vs GDP-bound KRAS wild-type protein
# Sequence of GDP-bound HRAS wild-type protein (P01112 whole entry): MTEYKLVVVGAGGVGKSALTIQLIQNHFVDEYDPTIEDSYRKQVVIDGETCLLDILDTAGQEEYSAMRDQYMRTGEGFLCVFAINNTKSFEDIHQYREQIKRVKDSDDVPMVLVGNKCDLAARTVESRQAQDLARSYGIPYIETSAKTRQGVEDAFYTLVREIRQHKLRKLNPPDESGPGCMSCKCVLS
# [2] = target: GDP-bound NRAS wild-type protein (Homo sapiens, UniProt P01111); assay: Binding to NRAS by surface plasmon resonance (SPR), Single Cycle Kinetics; conditions: SPR, GDP-bound NRAS wild-type protein vs GDP-bound KRAS wild-type protein
# Sequence of GDP-bound NRAS wild-type protein (P01111 whole entry): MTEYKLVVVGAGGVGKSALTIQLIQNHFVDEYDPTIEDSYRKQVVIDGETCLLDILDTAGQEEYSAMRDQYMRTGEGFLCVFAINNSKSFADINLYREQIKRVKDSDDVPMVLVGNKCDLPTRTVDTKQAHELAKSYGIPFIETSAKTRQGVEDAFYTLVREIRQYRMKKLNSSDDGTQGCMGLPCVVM
# [3] = target: GDP-bound KRAS wild-type protein (Homo sapiens, UniProt P01116); assay: Binding to KRAS by surface plasmon resonance (SPR), Single Cycle Kinetics; conditions: GDP-bound KRAS wild-type protein, read-out: KRAS KD
# Sequence of GDP-bound KRAS wild-type protein (P01116 whole entry): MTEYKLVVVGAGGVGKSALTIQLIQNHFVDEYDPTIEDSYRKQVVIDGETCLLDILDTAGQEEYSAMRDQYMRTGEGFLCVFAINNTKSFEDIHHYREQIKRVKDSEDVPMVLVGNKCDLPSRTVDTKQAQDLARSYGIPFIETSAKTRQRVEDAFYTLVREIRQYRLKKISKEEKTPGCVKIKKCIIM
# [4] = SPR Single Cycle Kinetics, 1:1 binding model
"Kd ([3]; SPR, Single Cycle Kinetics) [nM]","Kd [3, 4] [nM]",Structure (SMILES),HRAS/KRAS (ratio of KD value for HRAS to KD value for KRAS) [1],NRAS/KRAS (ratio of KD value for NRAS to KD value for KRAS) [2]
0.41,–,CCC[C@H]1C(=O)N[C@@H]([C@@H](C)CC)C(=O)N(C)CC(=O)N(C)[C@H]2C/C=C\CCN(C2=O)[C@@H](CC2CCCCC2)C(=O)N(C)CC(=O)N[C@@H](CCc2ccc(C(F)(F)F)c(OC)c2)C(=O)N2C[C@H](OCC)C[C@H]2C(=O)N(C)C2(CCC2)C(=O)N(C)[C@@H](C2CCCC2)C(=O)N(C)[C@H](C(=O)N(C)C)CC(=O)N1C [PP2336],A (a compound having 10 or more and less than 20 is denoted as A),A (a compound having 10 or more and less than 20 is denoted as A)
–,0.83,"CCCN1C(=O)CN(C)C(=O)[C@@H]2CCN2C(=O)[C@H]([C@@H](C)CC)NC(=O)[C@H](CC(C)C)N(C)C(=O)C[C@@H](C(=O)N2CCOCC2)N(C)C(=O)[C@H](C2CCCC2)N(C)C(=O)C2(CCCC2)NC(=O)[C@@H]2CC(F)(F)CN2C(=O)[C@H](CCc2ccc(C(F)(F)F)c(Cl)c2)NC(=O)CN(C)C(=O)[C@@H]1Cc1ccc(C(F)(F)F)cc1 [PP0403] ([NMeL]I[Aze][Sar][NPrPhe(4-CF3)][Sar][hPhe(3-Cl-4-CF3)][Pro(4,4-F2)][Ac5c][NMeGly(cPent)][NMeD]-Morpholide; lactam N-11)",B (a compound having 3 or more and less than 10 is denoted as B),B (a compound having 3 or more and less than 10 is denoted as B)
–,0.2,CC[C@H](C)[C@@H]1NC(=O)[C@H](CC(C)C)N(C)C(=O)C[C@@H](C(=O)N2CCOCC2)N(C)C(=O)[C@H](C2CCCC2)N(C)C(=O)C2(CCCC2)NC(=O)[C@@H]2CCCN2C(=O)[C@H](CCc2ccc(C(F)(F)F)c(Cl)c2)NC(=O)CN(C)C(=O)[C@H](Cc2ccc(C(F)(F)F)cc2)N(CCOC)C(=O)CN(C)C(=O)CN(C)C1=O [PP0132] ([NMeL]I[Sar][Sar][X32][Sar][hPhe(3-Cl-4-CF3)]P[Ac5c][NMeGly(cPent)][NMeD]-Morpholide; lactam N-11),C (A compound having a KD ratio of 0.1 or more and less than 3 is denoted as C),C (A compound having a KD ratio of 0.1 or more and less than 3 is denoted as C)
0.44,–,CCO[C@@H]1C[C@H]2C(=O)NC3(CC(C)(C)C3)C(=O)N(C)[C@@H](C(CC)CC)C(=O)N(C)[C@H](C(=O)N(C)C)CC(=O)N(C)[C@@H](CC3CCC3)C(=O)N[C@@H]([C@@H](C)CC)C(=O)N(C)CC(=O)N(C)[C@H]3C/C=C\CCN(C3=O)[C@@H](Cc3ccc(C(F)(F)F)cc3)C(=O)N(C)CC(=O)N[C@@H](CCc3ccc(C(F)(F)F)c(Cl)c3)C(=O)N2C1 [PP2138],A (a compound having 10 or more and less than 20 is denoted as A),A (a compound having 10 or more and less than 20 is denoted as A)
–,0.8,CC[C@H](C)[C@@H]1NC(=O)[C@H](CC(C)C)N(C)C(=O)C[C@@H](C(=O)N2CCOCC2)N(C)C(=O)[C@H](C2CCCC2)N(C)C(=O)C2(CCCC2)NC(=O)[C@@H]2CCCN2C(=O)[C@H](CCc2ccc(C(F)(F)F)c(Cl)c2)NC(=O)CN(C)C(=O)[C@H](Cc2ccc(C)cc2)N(CC)C(=O)CN(CC)C(=O)CN(C)C1=O [PP0027] ([NMeL]I[Sar][NEtG][NEtPhe(4-Me)][Sar][hPhe(3-Cl-4-CF3)]P[Ac5c][NMeGly(cPent)][NMeD]-Morpholide; lactam N-11),C (A compound having a KD ratio of 0.1 or more and less than 3 is denoted as C),C (A compound having a KD ratio of 0.1 or more and less than 3 is denoted as C)
–,1.1,CCCN1C(=O)[C@@H]2CCN2C(=O)CN(C)C(=O)[C@H]([C@@H](C)CC)NC(=O)[C@H](CC(C)C)N(C)C(=O)C[C@@H](C(=O)N2CCOCC2)NC(=O)[C@H](C2CCCC2)N(C)C(=O)C2(CCC2)NC(=O)[C@@H]2CCCN2C(=O)[C@H](CCc2ccc(C(F)(F)F)c(Cl)c2)NC(=O)CN(C)C(=O)[C@@H]1Cc1ccc(C(F)(F)F)cc1 [PP0350] ([NMeL]I[Sar][Aze][NPrPhe(4-CF3)][Sar][hPhe(3-Cl-4-CF3)]P[Ac4c][NMeGly(cPent)]D-Morpholide; lactam N-11),B (a compound having 3 or more and less than 10 is denoted as B),C (A compound having a KD ratio of 0.1 or more and less than 3 is denoted as C)
–,0.48,CCCN1C(=O)CN(C)C(=O)CN(CC)C(=O)[C@H]([C@@H](C)CC)NC(=O)[C@H](CC(C)C)N(C)C(=O)C[C@@H](C(=O)N(C)C)NC(=O)[C@H](C2CCCC2)N(C)C(=O)C2(CCCC2)NC(=O)[C@@H]2C[C@@H](OCC)CN2C(=O)[C@H](CCc2ccc(C(F)(F)F)c(Cl)c2)NC(=O)CN(C)C(=O)[C@@H]1Cc1ccc(C(F)(F)F)cc1 [PP0371] ([NMeL]I[NEtG][Sar][NPrPhe(4-CF3)][Sar][hPhe(3-Cl-4-CF3)][Hyp](Et)[Ac5c][NMeGly(cPent)]D-NMe2; lactam N-11),C (A compound having a KD ratio of 0.1 or more and less than 3 is denoted as C),B (a compound having 3 or more and less than 10 is denoted as B)
0.22,–,C#CC[C@H]1C(=O)N[C@@H]([C@@H](C)CC)C(=O)N(C)CC(=O)N(C)[C@H]2C/C=C\CCN(C2=O)[C@@H](Cc2ccc(C(F)(F)F)cc2)C(=O)N(C)CC(=O)N[C@@H](CCc2cc(F)c(C(F)(F)F)c(F)c2)C(=O)N2C[C@@H](C)C[C@H]2C(=O)NC2(CC(C)(C)C2)C(=O)N(C)[C@@H](C2CCCC2)C(=O)N(C)[C@H](C(=O)N(C)CC)CC(=O)N1C [PP2075],A (a compound having 10 or more and less than 20 is denoted as A),A (a compound having 10 or more and less than 20 is denoted as A)
0.04,–,CC[C@H](C)[C@@H]1NC(=O)[C@H](CC(C)C)N(C)C(=O)C[C@@H](C(=O)N2CCOCC2)N(C)C(=O)[C@H](C2CCCC2)N(C)C(=O)C2(CCC2)NC(=O)[C@@H]2[C@H]3C[C@H]3CN2C(=O)[C@H](CCc2cc(F)c(C(F)(F)F)c(F)c2)NC(=O)CN(C)C(=O)[C@H](Cc2ccc(C(F)(F)F)cc2)N2CCCC[C@@H](C2=O)N(C)C(=O)CN(C)C1=O [PP0810],B (a compound having 3 or more and less than 10 is denoted as B),B (a compound having 3 or more and less than 10 is denoted as B)
–,4.8,CCCN1CC(=O)NC2(CCCC2)C(=O)N(C)[C@@H](C2CCCC2)C(=O)N(C)[C@H](C(=O)N2CCOCC2)CC(=O)N(C)[C@@H](CC(C)C)C(=O)N[C@@H]([C@@H](C)CC)C(=O)N(CC)CC(=O)N(C)CC(=O)N(CCC)[C@@H](Cc2ccc(C(F)(F)F)cc2)C(=O)N(C)CC(=O)N[C@@H](CCc2ccc(C(F)(F)F)c(Cl)c2)C1=O [PP0301] ([NMeL]I[NEtG][Sar][NPrPhe(4-CF3)][Sar][hPhe(3-Cl-4-CF3)][NPrGly][Ac5c][NMeGly(cPent)][NMeD]-Morpholide; lactam N-11),C (A compound having a KD ratio of 0.1 or more and less than 3 is denoted as C),B (a compound having 3 or more and less than 10 is denoted as B)
